Reference: PubChem BioAssay (NCI)
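In this assay, cells in 96-well plates receive the compound at five concentrations for 48 hours. Endpoints are linearly interpolated between the surrounding concentrations. GI50 = concentration required for 50% inhibition of growth. TGI denotes the concentration required for complete inhibition of growth.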

How the values were obtained:
Assay in all cases: growth of human tumour cells (NCI), 48 h
[1] = tested on: EKVX NSCLC
[2] = tested on: HCC-2998 colon
[3] = tested on: KM12 colon
[4] = tested on: LOX IMVI melanoma
[5] = tested on: M14 melanoma
[6] = tested on: MALME-3M melanoma
[7] = tested on: SN12C renal
[8] = tested on: SW-620 colon
[9] = tested on: UACC-257 melanoma
[10] = tested on: UO-31 renal

Question: With `COc1ccc(-n2cc(-c3cc(OC)c(OC)c(OC)c3)nc2SCc2ccc(Cl)cc2)cc1OC` as the compound, how does the GI50 [1] read?
Answer: 95.3 µM

Question: And the TGI [1]?
Answer: > 100 µM

Question: What about the GI50 [2] of the same compound?
Answer: > 100 µM

Question: And the TGI [2]?
Answer: > 100 µM

Question: What about the GI50 [3] of the same compound?
Answer: > 100 µM

Question: And the TGI [3]?
Answer: > 100 µM

Question: And the GI50 [4]?
Answer: > 100 µM

Question: And the TGI [4]?
Answer: > 100 µM

Question: And the GI50 [5]?
Answer: > 100 µM

Question: What about the TGI [5] of the same compound?
Answer: > 100 µM

Question: What about the GI50 [6] of the same compound?
Answer: > 100 µM

Question: What about the TGI [6] of the same compound?
Answer: > 100 µM

Question: What about the GI50 [7] of the same compound?
Answer: > 100 µM

Question: And the TGI [7]?
Answer: > 100 µM

Question: What about the GI50 [8] of the same compound?
Answer: > 100 µM

Question: What about the TGI [8] of the same compound?
Answer: > 100 µM

Question: And the GI50 [9]?
Answer: > 100 µM

Question: What about the TGI [9] of the same compound?
Answer: > 100 µM

Question: And the GI50 [10]?
Answer: 27.8 µM

Question: What about the TGI [10] of the same compound?
Answer: > 100 µM
